Laboratory results taken from article PMC9895061 (Signal Transduction and Targeted Therapy, 2023).
Like-named read-outs stand apart in the source and are kept apart here.

Columns and labels:
[1] = molecular target: T1, recombinant wild type PRDX1 (Homo sapiens, UniProt Q06830); experiment: Surface plasmon resonance (SPR) assay; type: binding
T1 sequence (Q06830 1-199): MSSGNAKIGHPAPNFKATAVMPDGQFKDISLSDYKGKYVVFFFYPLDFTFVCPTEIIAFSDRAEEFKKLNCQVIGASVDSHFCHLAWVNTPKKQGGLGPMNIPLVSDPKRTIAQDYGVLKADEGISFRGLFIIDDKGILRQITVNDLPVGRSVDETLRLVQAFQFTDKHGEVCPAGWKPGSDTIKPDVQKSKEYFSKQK

PRDX1 [2] = molecular target: T2, PRDX1 (Homo sapiens, UniProt Q06830); experiment: Determination of Kinact and Ki for inhibition of PRDX1's peroxidase activity; type: biochemical
T2 sequence (Q06830 1-199): T1 sequence (Q06830 1-199)

nude mice [3] = experiment: Acute toxicity test (percent survival within 2 weeks); type: in vivo; details: for Survival number, female (n=4) / Survival number, male (n=4) / Survival rate, female (n=4) / Survival rate, male (n=4): within 2 weeks
Experimental: For acute toxicity test, Nude mice were randomly divided into five groups (four female mice and four male mice in each group). […] The percent survival within 2 weeks was recorded in Supplementary Table 2 and survival curve.

SW620 cells = experiment: CCK-8 proliferation assay, SW620; type: cell-based; details: Homo sapiens, SW-620; 24 h treatment
Experimental: SW620 or HCT116 cells were seeded into 96-well plate overnight at 5000 cells per well or 4000 cells per well respectively. […] Cell numbers were assessed using the CCK-8 reagent at OD 450. The IC50 values were calculated by fitting the data points with the dose-response function in GraphPad.

[4] = Body weight of xenograft-bearing nude mice; details: 2 mg/kg, day 12, average of gNS and gPRDX1 groups
PRDX2 = molecular target: T3, PRDX2 (Homo sapiens, UniProt P32119); experiment: Trx-TrxR-NADPH coupling peroxiredoxin activity assay, PRDX2; type: biochemical
T3 sequence (P32119 1-198): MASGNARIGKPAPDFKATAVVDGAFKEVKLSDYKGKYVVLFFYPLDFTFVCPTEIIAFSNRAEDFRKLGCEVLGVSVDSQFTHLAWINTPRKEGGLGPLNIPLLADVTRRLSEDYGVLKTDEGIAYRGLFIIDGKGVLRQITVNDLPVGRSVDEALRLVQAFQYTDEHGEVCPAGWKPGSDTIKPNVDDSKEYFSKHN

PRDX1 [5] = molecular target: T2, PRDX1; experiment: Trx-TrxR-NADPH coupling peroxiredoxin activity assay, PRDX1; type: biochemical
nude mice [6] = experiment: Chronic toxicity test, routine blood test; details: 2 mg/kg, 5 days per week for two weeks

With `CC1=C(O)C(=O)C=C2C1=CC=C1[C@@]2(C)CC[C@@]2(C)[C@@H]3C[C@](C)(C(=O)O)CC[C@]3(C)CC[C@]12C` [Celastrol, reference compound] the Kd [1] was 360 nM, the Ki (PRDX1 [2]) was 950 ± 86 nM and the “Survival number, female (n=4)” value (nude mice [3]; 10 mg/kg intraperitoneally) was 0. For the same compound, the “Survival number, male (n=4)” value (nude mice [3]; 10 mg/kg intraperitoneally) was 1, the “Survival rate, female (n=4)” value (nude mice [3]; 10 mg/kg intraperitoneally) was 0% and the “Survival rate, male (n=4)” value (nude mice [3]; 10 mg/kg intraperitoneally) was 25%. The “Survival number, female (n=4)” value (nude mice [3]; 20 mg/kg intraperitoneally) was 0, the “Survival number, male (n=4)” value (nude mice [3]; 20 mg/kg intraperitoneally) was 0 and the “Survival rate, female (n=4)” value (nude mice [3]; 20 mg/kg intraperitoneally) was 0%. For the same compound, the “Survival rate, male (n=4)” value (nude mice [3]; 20 mg/kg intraperitoneally) was 0%, the “survival, all mice (male and female), in words” value (nude mice [3]; 20 mg/kg, within two weeks) was “All the mice died” and the IC50 (SW620 cells) was 690 nM. For the same compound, the “body weight loss as compared to DMSO control” value [4] was 11.2%, the IC50 (PRDX2) was 3790 ± 260 nM and the IC50 (PRDX1 [5]) was 290 ± 10 nM. The “count and proportion of monocyte and neutrophil, routine blood test (in words)” value (nude mice [6]) was “higher than the reference intervals”.
For `COC(=O)[C@H](C)NC(=O)N[C@]1(C)CC[C@]2(C)CC[C@]3(C)C4=CC=C5C(=CC(=O)C(O)=C5C)[C@]4(C)CC[C@@]3(C)[C@@H]2C1` [19-048, Methyl (((2R,4aS,6aS,12bR,14aS,14bR)-10-hydroxy-2,4a,6a,9,12b,14a-hexamethyl-11-oxo-1,2,3,4,4a,5,6,6a,11,12b,13,14,14a,14b-tetradecahydropicen-2-yl)carbamoyl)-L-alaninate], the “Survival number, female (n=4)” value (nude mice [3]; 10 mg/kg intraperitoneally) was 4, the “Survival number, male (n=4)” value (nude mice [3]; 10 mg/kg intraperitoneally) was 4 and the “Survival rate, female (n=4)” value (nude mice [3]; 10 mg/kg intraperitoneally) was 100%. For the same compound, the “Survival rate, male (n=4)” value (nude mice [3]; 10 mg/kg intraperitoneally) was 100%, the “survival, all mice (male and female)” value (nude mice [3]; 10 mg/kg, within two weeks) was 100% and the “Survival number, female (n=4)” value (nude mice [3]; 20 mg/kg intraperitoneally) was 0. For the same compound, the “Survival number, male (n=4)” value (nude mice [3]; 20 mg/kg intraperitoneally) was 4, the “Survival rate, female (n=4)” value (nude mice [3]; 20 mg/kg intraperitoneally) was 0% and the “Survival rate, male (n=4)” value (nude mice [3]; 20 mg/kg intraperitoneally) was 100%. For the same compound, the IC50 (SW620 cells) was 528 nM, the “body weight loss as compared to DMSO control” value [4] was 7.3% and the “inhibition of the peroxidase activity of PRDX2 (in words)” value (PRDX2; recombinant PRDX2) was “no obvious inhibition”. The IC50 (PRDX2; recombinant PRDX2, 1.5 h incubation, mean ± SEM, triplicate, read-out: IC50 against the peroxidase activity of PRDX2) was over 100000 nM.
